Source: ChEMBL document CHEMBL3102755, “Diphenylpropane Derivatives as Agonist of PPAR Nuclear Receptors” (ACS Med Chem Lett, 2013)
Activity calls are given as the source filed them. The calls are words filed in the database; no cut-off is given here.

Key:
[1] = target: T1, Peroxisome proliferator-activated receptor gamma (Homo sapiens, UniProt P37231); test: Agonist activity at human PPARgamma ligand binding domain expressed in monkey COS7 cells cotransfected with Gal4 by luciferase reporter gene assay; format: cell-based, COS-7
T1 sequence (P37231 whole entry): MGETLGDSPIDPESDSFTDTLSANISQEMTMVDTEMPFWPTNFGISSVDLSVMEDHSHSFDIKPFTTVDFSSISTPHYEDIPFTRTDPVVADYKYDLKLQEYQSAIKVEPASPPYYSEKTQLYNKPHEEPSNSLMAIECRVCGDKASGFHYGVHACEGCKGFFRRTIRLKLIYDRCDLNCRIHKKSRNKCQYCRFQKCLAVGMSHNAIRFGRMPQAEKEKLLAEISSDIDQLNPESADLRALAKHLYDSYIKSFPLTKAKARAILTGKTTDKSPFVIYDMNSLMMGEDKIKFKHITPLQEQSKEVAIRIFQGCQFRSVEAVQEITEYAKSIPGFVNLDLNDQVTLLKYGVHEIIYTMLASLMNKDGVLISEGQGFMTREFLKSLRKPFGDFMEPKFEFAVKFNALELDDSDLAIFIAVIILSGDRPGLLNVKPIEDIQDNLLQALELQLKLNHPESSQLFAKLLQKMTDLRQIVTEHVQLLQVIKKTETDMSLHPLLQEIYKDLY

Mus musculus [2] = test: Antialzheimer activity in APPPS1 transgenic C57BL/6J mouse model assessed as decrease in beta-amyloid accumulation in brain at 1 to 10 mg/kg; format: functional, organism-based
Mus musculus [3] = test: Cognitive enhancing effect in APPPS1 transgenic C57BL/6J mouse model at 1 to 10 mg/kg for 60 days by Morris-Water maze assay; format: functional, organism-based
[4] = Ratio of AUC (0 to 24 hrs) in brain to plasma in mouse at 2 mg/kg, iv and 10 mg/kg, po; format: ADME, organism-based; details: read-out: BPR
[5] = target: T2, Peroxisome proliferator-activated receptor alpha (Homo sapiens, UniProt Q07869); test: Agonist activity at human PPARalpha ligand binding domain expressed in monkey COS7 cells cotransfected with Gal4 by luciferase reporter gene assay; format: cell-based, COS-7
T2 sequence (Q07869 whole entry): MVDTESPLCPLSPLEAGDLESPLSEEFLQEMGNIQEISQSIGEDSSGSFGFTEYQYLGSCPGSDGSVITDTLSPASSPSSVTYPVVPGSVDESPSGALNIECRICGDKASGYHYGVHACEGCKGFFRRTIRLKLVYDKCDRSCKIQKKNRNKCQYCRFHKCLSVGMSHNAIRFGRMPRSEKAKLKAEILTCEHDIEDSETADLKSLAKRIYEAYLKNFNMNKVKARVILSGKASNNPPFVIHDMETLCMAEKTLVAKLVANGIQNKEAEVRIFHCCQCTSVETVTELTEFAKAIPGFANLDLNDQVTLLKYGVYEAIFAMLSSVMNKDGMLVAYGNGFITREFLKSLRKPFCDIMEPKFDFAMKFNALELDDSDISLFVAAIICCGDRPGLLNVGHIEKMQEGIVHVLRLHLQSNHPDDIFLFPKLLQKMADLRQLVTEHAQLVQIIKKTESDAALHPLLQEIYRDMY

[6] = target: T3, Peroxisome proliferator-activated receptor delta (Homo sapiens, UniProt Q03181); test: Agonist activity at human PPARdelta ligand binding domain expressed in monkey COS7 cells cotransfected with Gal4 by luciferase reporter gene assay; format: cell-based, COS-7
T3 sequence (Q03181 whole entry): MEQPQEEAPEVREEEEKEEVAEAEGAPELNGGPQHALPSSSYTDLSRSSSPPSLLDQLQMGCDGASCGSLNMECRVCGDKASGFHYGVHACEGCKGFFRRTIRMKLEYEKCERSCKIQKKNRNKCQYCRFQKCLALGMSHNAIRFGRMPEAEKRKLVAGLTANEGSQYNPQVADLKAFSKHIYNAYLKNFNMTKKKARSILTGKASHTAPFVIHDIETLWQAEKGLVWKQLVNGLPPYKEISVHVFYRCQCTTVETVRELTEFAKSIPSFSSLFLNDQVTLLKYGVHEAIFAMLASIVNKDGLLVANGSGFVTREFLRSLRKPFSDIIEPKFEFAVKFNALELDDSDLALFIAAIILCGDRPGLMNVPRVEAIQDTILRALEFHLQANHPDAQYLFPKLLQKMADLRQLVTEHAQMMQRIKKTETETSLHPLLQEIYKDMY

EC50 ([1]; cos-7)	Kp [4]	EC50 [1]	EC50 [5]	EC50 [6]	SMILES	Activity (Mus musculus [2])	Activity (Mus musculus [3])
16 nM	0.37	–	–	–	COC(c1ccc(OC(F)(F)F)cc1)C1CC1c1cc(C)c(OC(C)(C)C(=O)O)c(C)c1 (single isomer, unassigned; enantiomer 1)	Active	Active
–	–	23 nM	100 nM	122 nM	Cc1cc(C2CC2C(OC(=O)c2ccccc2)c2ccc(OC(F)(F)F)cc2)cc(C)c1OC(C)(C)C(=O)O (single isomer, unassigned; diastereomer 2)	–	–
–	–	116 nM	21 nM	79 nM	Cc1cc(C2CC2C(OC(=O)c2ccccc2)c2ccc(OC(F)(F)F)cc2)cc(C)c1OC(C)(C)C(=O)O (single isomer, unassigned; diastereomer 1)	–	–
